Data published in ChEMBL document CHEMBL5678818, “Discovery of potent SOS1 inhibitors that block RAS activation via disruption of the RAS-SOS1 interaction” (Proc Natl Acad Sci U S A, 2019).

Assays:
[1] = molecular target: Calcium/calmodulin-dependent protein kinase type II subunit delta (Homo sapiens) (UniProt Q13557); assay: Inhibition of CAMK2D (unknown origin) assessed as residual activity at 1000 nM by KINOMEscan analysis relative to control
[2] = molecular target: Mitogen-activated protein kinase 3 (Homo sapiens) (UniProt P27361); assay: Inhibition of ERK1 (unknown origin) assessed as residual activity at 1000 nM by KINOMEscan analysis relative to control
[3] = molecular target: Ribosomal protein S6 kinase alpha-4 (Homo sapiens) (UniProt O75676); assay: Inhibition of C-terminal RPS6KA4 […] domain 2 (unknown origin) assessed as residual activity at 1000 nM by KINOMEscan analysis relative to control
[4] = molecular target: Serine/threonine-protein kinase PAK 4 (Homo sapiens) (UniProt O96013); assay: Inhibition of PAK4 (unknown origin) assessed as residual activity at 1000 nM by KINOMEscan analysis relative to control
[5] = molecular target: T1, TGF-beta receptor type-1 (Homo sapiens) (UniProt P36897); assay: Inhibition of TGFBR1 (unknown origin) assessed as residual activity at 1000 nM by KINOMEscan analysis relative to control
T1 sequence (whole entry): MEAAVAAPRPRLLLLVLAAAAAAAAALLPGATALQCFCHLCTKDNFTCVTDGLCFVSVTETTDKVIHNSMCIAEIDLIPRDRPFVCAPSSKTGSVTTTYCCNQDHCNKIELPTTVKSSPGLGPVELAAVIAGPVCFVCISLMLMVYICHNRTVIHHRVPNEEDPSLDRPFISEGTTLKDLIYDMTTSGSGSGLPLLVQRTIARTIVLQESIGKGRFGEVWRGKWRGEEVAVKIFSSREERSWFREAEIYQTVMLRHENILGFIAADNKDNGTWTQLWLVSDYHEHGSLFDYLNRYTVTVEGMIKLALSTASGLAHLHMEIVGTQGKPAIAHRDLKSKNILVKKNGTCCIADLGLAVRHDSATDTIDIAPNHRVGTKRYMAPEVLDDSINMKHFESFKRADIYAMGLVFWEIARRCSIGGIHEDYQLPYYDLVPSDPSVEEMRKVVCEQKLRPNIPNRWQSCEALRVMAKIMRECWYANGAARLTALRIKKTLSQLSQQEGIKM

[6] = molecular target: T2, Myosin light chain kinase family member 4 (Homo sapiens) (UniProt Q86YV6); assay: Inhibition of MYLK4 (unknown origin) assessed as residual activity at 1000 nM by KINOMEscan analysis relative to control
T2 sequence (whole entry): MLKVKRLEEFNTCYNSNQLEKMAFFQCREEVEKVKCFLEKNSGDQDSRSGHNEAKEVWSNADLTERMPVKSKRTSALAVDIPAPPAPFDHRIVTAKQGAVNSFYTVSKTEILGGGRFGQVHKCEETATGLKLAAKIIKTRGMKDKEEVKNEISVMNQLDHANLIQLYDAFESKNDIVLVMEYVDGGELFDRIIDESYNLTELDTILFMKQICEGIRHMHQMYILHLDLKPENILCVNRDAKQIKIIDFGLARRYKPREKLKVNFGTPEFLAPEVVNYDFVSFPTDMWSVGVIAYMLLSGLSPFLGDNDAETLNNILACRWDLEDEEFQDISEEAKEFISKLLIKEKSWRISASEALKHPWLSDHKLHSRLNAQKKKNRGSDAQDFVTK

[7] = molecular target: T3, Serine/threonine-protein kinase ULK1 (Homo sapiens) (UniProt O75385); assay: Inhibition of ULK1 (unknown origin) assessed as residual activity at 1000 nM by KINOMEscan analysis relative to control
T3 sequence (whole entry): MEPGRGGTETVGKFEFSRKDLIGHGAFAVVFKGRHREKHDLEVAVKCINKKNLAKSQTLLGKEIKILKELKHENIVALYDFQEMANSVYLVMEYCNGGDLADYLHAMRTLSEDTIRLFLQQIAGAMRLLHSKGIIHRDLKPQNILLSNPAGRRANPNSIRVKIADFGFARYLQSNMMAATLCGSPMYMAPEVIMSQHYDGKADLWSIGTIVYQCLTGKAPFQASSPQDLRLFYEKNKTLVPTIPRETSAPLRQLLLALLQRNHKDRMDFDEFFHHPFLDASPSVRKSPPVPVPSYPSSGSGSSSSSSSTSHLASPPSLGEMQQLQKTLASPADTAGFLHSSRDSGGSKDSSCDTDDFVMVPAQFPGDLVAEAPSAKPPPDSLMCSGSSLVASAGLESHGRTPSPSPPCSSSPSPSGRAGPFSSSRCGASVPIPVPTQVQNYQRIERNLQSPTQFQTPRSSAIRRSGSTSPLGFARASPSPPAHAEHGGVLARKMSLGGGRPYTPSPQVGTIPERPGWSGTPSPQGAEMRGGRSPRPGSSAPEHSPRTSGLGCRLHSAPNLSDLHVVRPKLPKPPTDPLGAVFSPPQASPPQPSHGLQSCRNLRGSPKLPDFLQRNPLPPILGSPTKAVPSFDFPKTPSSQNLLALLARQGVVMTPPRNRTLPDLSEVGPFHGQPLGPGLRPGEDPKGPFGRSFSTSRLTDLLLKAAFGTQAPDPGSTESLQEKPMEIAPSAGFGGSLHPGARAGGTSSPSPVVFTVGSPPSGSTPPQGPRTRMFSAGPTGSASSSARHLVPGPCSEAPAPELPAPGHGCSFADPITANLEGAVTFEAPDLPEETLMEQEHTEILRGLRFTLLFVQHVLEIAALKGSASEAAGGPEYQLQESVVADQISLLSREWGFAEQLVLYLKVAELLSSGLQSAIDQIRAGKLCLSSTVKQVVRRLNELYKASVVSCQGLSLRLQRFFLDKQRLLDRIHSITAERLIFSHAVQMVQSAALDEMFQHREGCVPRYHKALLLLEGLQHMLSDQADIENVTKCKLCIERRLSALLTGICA

[8] = molecular target: Serine/threonine-protein kinase MRCK beta (Homo sapiens) (UniProt Q9Y5S2); assay: Inhibition of MRCKB (unknown origin) assessed as residual activity at 1000 nM by KINOMEscan analysis relative to control
Chain of Serine/threonine-protein kinase MRCK beta (Homo sapiens) (Q9Y5S2 whole entry): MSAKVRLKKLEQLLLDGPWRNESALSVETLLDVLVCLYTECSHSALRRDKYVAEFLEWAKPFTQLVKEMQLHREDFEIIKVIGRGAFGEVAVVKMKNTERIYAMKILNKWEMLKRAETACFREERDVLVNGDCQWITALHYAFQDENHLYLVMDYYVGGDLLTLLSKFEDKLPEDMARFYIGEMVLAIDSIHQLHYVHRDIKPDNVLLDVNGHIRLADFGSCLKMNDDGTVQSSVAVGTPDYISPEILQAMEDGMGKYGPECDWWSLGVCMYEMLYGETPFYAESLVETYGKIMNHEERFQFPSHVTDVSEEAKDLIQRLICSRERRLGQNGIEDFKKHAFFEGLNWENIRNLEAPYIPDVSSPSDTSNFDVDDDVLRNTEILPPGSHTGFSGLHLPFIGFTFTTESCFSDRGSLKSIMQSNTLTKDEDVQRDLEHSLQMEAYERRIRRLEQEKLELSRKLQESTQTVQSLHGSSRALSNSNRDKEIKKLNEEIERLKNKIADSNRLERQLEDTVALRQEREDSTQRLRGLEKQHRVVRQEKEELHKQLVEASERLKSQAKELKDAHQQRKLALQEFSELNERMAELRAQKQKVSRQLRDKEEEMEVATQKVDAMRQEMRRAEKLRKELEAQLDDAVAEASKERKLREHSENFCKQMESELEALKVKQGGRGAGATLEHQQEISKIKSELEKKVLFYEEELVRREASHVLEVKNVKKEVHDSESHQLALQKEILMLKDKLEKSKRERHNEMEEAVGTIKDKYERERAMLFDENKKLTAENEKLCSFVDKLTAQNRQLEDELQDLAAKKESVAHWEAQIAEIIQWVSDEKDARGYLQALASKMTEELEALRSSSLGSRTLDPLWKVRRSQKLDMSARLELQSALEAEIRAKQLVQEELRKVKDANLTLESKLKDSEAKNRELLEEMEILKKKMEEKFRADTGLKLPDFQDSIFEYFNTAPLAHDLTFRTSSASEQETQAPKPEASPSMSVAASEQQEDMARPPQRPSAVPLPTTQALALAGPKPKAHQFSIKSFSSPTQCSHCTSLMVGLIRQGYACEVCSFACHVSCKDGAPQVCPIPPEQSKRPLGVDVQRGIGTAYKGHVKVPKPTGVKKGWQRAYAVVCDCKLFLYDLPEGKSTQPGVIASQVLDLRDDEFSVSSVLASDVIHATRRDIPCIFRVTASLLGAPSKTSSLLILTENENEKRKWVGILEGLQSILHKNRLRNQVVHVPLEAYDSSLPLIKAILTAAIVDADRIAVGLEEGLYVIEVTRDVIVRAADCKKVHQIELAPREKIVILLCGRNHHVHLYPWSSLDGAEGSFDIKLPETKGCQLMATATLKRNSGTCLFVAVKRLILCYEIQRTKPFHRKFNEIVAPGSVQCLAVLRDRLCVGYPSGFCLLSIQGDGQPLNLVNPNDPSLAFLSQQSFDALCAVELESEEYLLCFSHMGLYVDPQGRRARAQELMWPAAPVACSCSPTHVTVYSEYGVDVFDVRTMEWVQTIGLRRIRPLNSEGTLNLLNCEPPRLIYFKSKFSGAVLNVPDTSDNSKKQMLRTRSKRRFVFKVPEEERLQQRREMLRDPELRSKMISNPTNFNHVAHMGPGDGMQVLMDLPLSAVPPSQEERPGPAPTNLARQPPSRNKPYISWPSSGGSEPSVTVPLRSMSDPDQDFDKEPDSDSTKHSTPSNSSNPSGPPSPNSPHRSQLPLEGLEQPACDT

Chain of Serine/threonine-protein kinase PAK 4 (Homo sapiens) (O96013 whole entry, looked up): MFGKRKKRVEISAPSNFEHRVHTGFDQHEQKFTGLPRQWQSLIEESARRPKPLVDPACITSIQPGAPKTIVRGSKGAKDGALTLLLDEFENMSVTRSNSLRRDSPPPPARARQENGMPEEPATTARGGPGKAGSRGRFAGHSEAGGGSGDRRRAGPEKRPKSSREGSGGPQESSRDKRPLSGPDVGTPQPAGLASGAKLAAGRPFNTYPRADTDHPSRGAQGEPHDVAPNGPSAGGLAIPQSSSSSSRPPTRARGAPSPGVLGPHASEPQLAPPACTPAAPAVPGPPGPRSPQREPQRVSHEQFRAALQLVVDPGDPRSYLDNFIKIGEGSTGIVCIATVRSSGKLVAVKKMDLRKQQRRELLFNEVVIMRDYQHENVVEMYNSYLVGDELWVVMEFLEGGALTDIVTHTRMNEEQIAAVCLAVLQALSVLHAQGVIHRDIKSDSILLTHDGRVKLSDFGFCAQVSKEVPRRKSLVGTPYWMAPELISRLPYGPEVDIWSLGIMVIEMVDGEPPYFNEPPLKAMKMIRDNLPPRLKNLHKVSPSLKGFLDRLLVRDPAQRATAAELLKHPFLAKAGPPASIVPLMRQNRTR
Chain of Mitogen-activated protein kinase 3 (Homo sapiens) (P27361 whole entry): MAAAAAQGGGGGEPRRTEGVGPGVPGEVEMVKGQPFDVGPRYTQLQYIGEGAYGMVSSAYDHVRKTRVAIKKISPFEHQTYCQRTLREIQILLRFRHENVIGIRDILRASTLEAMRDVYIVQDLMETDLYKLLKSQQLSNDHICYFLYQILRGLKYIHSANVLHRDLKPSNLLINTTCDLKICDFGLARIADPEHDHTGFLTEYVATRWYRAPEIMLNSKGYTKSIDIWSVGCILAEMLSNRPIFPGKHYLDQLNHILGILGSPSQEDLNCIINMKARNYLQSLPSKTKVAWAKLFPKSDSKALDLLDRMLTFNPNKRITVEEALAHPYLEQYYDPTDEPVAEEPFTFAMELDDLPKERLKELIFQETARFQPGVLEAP
Chain of Ribosomal protein S6 kinase alpha-4 (Homo sapiens) (O75676 whole entry, looked up): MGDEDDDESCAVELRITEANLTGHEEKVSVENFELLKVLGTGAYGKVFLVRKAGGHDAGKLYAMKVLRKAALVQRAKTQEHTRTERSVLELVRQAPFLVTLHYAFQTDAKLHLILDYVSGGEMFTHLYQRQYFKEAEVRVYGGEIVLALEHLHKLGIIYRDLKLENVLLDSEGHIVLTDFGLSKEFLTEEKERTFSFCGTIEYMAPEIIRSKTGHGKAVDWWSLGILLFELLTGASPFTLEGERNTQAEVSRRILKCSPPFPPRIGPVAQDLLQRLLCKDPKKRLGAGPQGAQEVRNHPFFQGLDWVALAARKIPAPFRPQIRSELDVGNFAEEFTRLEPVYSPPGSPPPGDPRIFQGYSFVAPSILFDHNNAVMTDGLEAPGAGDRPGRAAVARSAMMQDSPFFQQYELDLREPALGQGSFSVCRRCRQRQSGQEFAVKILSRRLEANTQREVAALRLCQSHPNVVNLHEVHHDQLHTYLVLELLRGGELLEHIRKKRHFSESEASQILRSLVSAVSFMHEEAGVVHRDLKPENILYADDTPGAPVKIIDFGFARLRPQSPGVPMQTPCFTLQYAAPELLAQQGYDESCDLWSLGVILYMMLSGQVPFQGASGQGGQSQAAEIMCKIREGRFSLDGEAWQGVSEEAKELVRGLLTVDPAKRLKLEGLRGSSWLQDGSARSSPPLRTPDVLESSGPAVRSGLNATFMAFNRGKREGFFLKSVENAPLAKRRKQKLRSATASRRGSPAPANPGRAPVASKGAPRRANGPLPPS
Chain of Calcium/calmodulin-dependent protein kinase type II subunit delta (Homo sapiens) (Q13557 whole entry): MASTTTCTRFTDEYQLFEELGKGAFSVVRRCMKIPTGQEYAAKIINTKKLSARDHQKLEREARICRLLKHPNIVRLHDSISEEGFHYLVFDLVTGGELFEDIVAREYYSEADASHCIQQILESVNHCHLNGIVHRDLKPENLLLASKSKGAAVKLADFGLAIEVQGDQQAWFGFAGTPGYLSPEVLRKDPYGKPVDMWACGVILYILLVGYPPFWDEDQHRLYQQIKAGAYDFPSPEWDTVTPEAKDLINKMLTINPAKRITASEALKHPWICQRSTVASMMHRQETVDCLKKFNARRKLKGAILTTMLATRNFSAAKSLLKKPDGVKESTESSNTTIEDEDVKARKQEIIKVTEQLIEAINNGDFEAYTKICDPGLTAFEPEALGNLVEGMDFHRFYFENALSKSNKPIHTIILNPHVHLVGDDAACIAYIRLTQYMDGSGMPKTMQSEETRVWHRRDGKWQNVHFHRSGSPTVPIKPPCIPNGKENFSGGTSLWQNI

## COc1cc2nc(C)nc(N[C@H](C)c3cccc(-c4cn[nH]c4)c3)c2cc1OC
[1]
  Activity: 100%
[2]
  Activity: 100%
[3]
  Activity: 100%
[4]
  Activity: 86%
[5]
  Activity: 100%
[6]
  Activity: 92%
[7]
  Activity: 97%
[8]
  Activity: 56%

## COc1cc2ncnc(N[C@H](C)c3cccc4ccccc34)c2cc1OC
[1]
  Activity: 100%
[2]
  Activity: 100%
[3]
  Activity: 82%
[4]
  Activity: 100%
[5]
  Activity: 100%
[6]
  Activity: 75%
[7]
  Activity: 87%
[8]
  Activity: 100%
